PubChem BioAssay AID1259407 (Chemical Carcinogenesis Research Information System (CCRIS), 2018)
Calls of active or inactive are those of the source. The rule behind the calls is not given here.

Test system: CCRIS mutagenicity, Ames/micronucleus/aberration tests
Assay: CCRIS mutagenicity studies
[1] = Test System: AMES SALMONELLA TYPHIMURIUM, Strain/Indicator: TA98, Metabolic Activation: HAMSTER, LIVER, S-9, AROCLOR 1254, Method: STANDARD PLATE
[2] = Test System: AMES SALMONELLA TYPHIMURIUM, Strain/Indicator: TA98, Metabolic Activation: RAT, LIVER, S-9, AROCLOR 1254, Method: STANDARD PLATE
[3] = Test System: AMES SALMONELLA TYPHIMURIUM, Strain/Indicator: TA100, Metabolic Activation: HAMSTER, LIVER, S-9, AROCLOR 1254, Method: STANDARD PLATE
[4] = Test System: MOUSE LYMPHOMA, Strain/Indicator: L5178Y (TK+/TK-), Metabolic Activation: NONE, Method: SUSPENSION/PLATE
[5] = Test System: MOUSE LYMPHOMA, Strain/Indicator: L5178Y (TK+/TK-), Metabolic Activation: RAT, LIVER, S-9, AROCLOR 1254, Method: SUSPENSION/PLATE
[6] = Test System: AMES SALMONELLA TYPHIMURIUM, Strain/Indicator: TA98, Metabolic Activation: NONE, Method: STANDARD PLATE
[7] = Test System: AMES SALMONELLA TYPHIMURIUM, Strain/Indicator: TA100, Metabolic Activation: NONE, Method: STANDARD PLATE
[8] = Test System: AMES SALMONELLA TYPHIMURIUM, Strain/Indicator: TA1535, Metabolic Activation: NONE, Method: STANDARD PLATE
[9] = Test System: AMES SALMONELLA TYPHIMURIUM, Strain/Indicator: TA1537, Metabolic Activation: NONE, Method: STANDARD PLATE
[10] = Test System: AMES SALMONELLA TYPHIMURIUM, Strain/Indicator: TA1538, Metabolic Activation: NONE, Method: STANDARD PLATE
[11] = Test System: AMES SALMONELLA TYPHIMURIUM, Strain/Indicator: TA98, Metabolic Activation: NONE, Method: PREINCUBATION
[12] = Test System: AMES SALMONELLA TYPHIMURIUM, Strain/Indicator: TA100, Metabolic Activation: NONE, Method: PREINCUBATION

CNCC(O)c1ccc(O)c(O)c1 (configuration not stated)
mutagenic call (Test System: AMES SALMONELLA TYPHIMURIUM, Strain/Indicator: TA102, Metabolic Activation: NONE, Method: STANDARD PLATE): inactive; negative
mutagenic call (Test System: AMES SALMONELLA TYPHIMURIUM, Strain/Indicator: TA2638, Metabolic Activation: NONE, Method: STANDARD PLATE): inactive; negative
mutagenic call (Test System: E. COLI, Strain/Indicator: WP2 (PKM101), Metabolic Activation: NONE, Method: STANDARD PLATE): inactive; negative
mutagenic call (Test System: E. COLI, Strain/Indicator: WP2 UVRA (PKM101), Metabolic Activation: NONE, Method: STANDARD PLATE): inactive; negative

CCCCB(CCCC)CCCC
mutagenic call [1]: active; positive
mutagenic call [2]: active; positive
mutagenic call [3]: active; positive
mutagenic call [4]: inactive; negative. reevaluation of results: negative
mutagenic call [5]: inactive; negative. reevaluation of results: negative

CCCCC(CC)COC(=O)c1ccc(C(=O)OCC(CC)CCCC)cc1 (configuration not stated)
mutagenic call [6]: inactive; negative
mutagenic call (Test System: AMES SALMONELLA TYPHIMURIUM, Strain/Indicator: TA98, Metabolic Activation: RAT, LIVER, S-9, Method: STANDARD PLATE): inactive; negative
mutagenic call [7]: inactive; negative
mutagenic call (Test System: AMES SALMONELLA TYPHIMURIUM, Strain/Indicator: TA100, Metabolic Activation: RAT, LIVER, S-9, Method: STANDARD PLATE): inactive; negative
mutagenic call [8]: inactive; negative
mutagenic call (Test System: AMES SALMONELLA TYPHIMURIUM, Strain/Indicator: TA1535, Metabolic Activation: RAT, LIVER, S-9, Method: STANDARD PLATE): inactive; negative
mutagenic call [9]: inactive; negative
mutagenic call (Test System: AMES SALMONELLA TYPHIMURIUM, Strain/Indicator: TA1537, Metabolic Activation: RAT, LIVER, S-9, Method: STANDARD PLATE): inactive; negative
mutagenic call [10]: inactive; negative
mutagenic call (Test System: AMES SALMONELLA TYPHIMURIUM, Strain/Indicator: TA1538, Metabolic Activation: RAT, LIVER, S-9, Method: STANDARD PLATE): inactive; negative
mutagenic call (Test System: CHINESE HAMSTER OVARY, Strain/Indicator: CHO-K1-BH4 (HGPRT)/6-THIOGUANINE, Metabolic Activation: NONE): inactive; negative
mutagenic call (Test System: CHINESE HAMSTER OVARY, Strain/Indicator: CHO-K1-BH4 (HGPRT)/6-THIOGUANINE, Metabolic Activation: RAT, LIVER, S-9): inactive; negative

CCOc1cccc(N)c1
mutagenic call (Test System: AMES SALMONELLA TYPHIMURIUM, Strain/Indicator: TA97, Metabolic Activation: HAMSTER, LIVER, S-9, AROCLOR 1254 (30%), Method: PREINCUBATION): inactive; negative
mutagenic call (Test System: AMES SALMONELLA TYPHIMURIUM, Strain/Indicator: TA98, Metabolic Activation: HAMSTER, LIVER, S-9, AROCLOR 1254 (5 OR 10%), Method: PREINCUBATION): inactive; negative
mutagenic call (Test System: AMES SALMONELLA TYPHIMURIUM, Strain/Indicator: TA98, Metabolic Activation: HAMSTER, LIVER, S-9, AROCLOR 1254 (30%), Method: PREINCUBATION): inactive; negative
mutagenic call [11]: inactive; negative
mutagenic call (Test System: AMES SALMONELLA TYPHIMURIUM, Strain/Indicator: TA98, Metabolic Activation: RAT, LIVER, S-9, AROCLOR 1254 (5 OR 10%), Method: PREINCUBATION): inactive; negative
mutagenic call (Test System: AMES SALMONELLA TYPHIMURIUM, Strain/Indicator: TA98, Metabolic Activation: RAT, LIVER, S-9, AROCLOR 1254 (30%), Method: PREINCUBATION): inactive; negative
mutagenic call (Test System: AMES SALMONELLA TYPHIMURIUM, Strain/Indicator: TA100, Metabolic Activation: HAMSTER, LIVER, S-9, AROCLOR 1254 (5, 10 OR 30%), Method: PREINCUBATION): inactive; negative
mutagenic call [12]: inactive; negative
mutagenic call (Test System: AMES SALMONELLA TYPHIMURIUM, Strain/Indicator: TA100, Metabolic Activation: RAT, LIVER, S-9, AROCLOR 1254 (5, 10 OR 30%), Method: PREINCUBATION): inactive; negative
mutagenic call (Test System: AMES SALMONELLA TYPHIMURIUM, Strain/Indicator: TA1535, Metabolic Activation: HAMSTER, LIVER, S-9, AROCLOR 1254 (5, 10 OR 30%), Method: PREINCUBATION): inactive; negative
mutagenic call (Test System: AMES SALMONELLA TYPHIMURIUM, Strain/Indicator: TA1535, Metabolic Activation: RAT, LIVER, S-9, AROCLOR 1254 (5, 10 OR 30%), Method: PREINCUBATION): inactive; negative

[Cl][Fe]([Cl])[Cl]
mutagenic call [1]: inactive; negative
mutagenic call [11]: inactive; negative
mutagenic call [6]: inactive; negative
mutagenic call [2]: inactive; negative
mutagenic call (Test System: AMES SALMONELLA TYPHIMURIUM, Strain/Indicator: TA98, Metabolic Activation: RAT, LIVER, S-9, KC 500, Method: PREINCUBATION): inactive; negative
mutagenic call [3]: inactive; negative
mutagenic call [12]: inactive; negative
mutagenic call [7]: inactive; negative
mutagenic call (Test System: AMES SALMONELLA TYPHIMURIUM, Strain/Indicator: TA100, Metabolic Activation: RAT, LIVER, S-9, AROCLOR 1254, Method: STANDARD PLATE): inactive; negative
mutagenic call (Test System: AMES SALMONELLA TYPHIMURIUM, Strain/Indicator: TA100, Metabolic Activation: RAT, LIVER, S-9, KC 500, Method: PREINCUBATION): inactive; negative
mutagenic call (Test System: AMES SALMONELLA TYPHIMURIUM, Strain/Indicator: TA1535, Metabolic Activation: HAMSTER, LIVER, S-9, AROCLOR 1254, Method: STANDARD PLATE): inactive; negative
mutagenic call (Test System: AMES SALMONELLA TYPHIMURIUM, Strain/Indicator: TA1535, Metabolic Activation: NONE, Method: PREINCUBATION): inactive; negative
mutagenic call [8]: inactive; negative
mutagenic call (Test System: AMES SALMONELLA TYPHIMURIUM, Strain/Indicator: TA1535, Metabolic Activation: RAT, LIVER, S-9, AROCLOR 1254, Method: STANDARD PLATE): inactive; negative
mutagenic call (Test System: AMES SALMONELLA TYPHIMURIUM, Strain/Indicator: TA1535, Metabolic Activation: RAT, LIVER, S-9, KC 500, Method: PREINCUBATION): inactive; negative
mutagenic call (Test System: AMES SALMONELLA TYPHIMURIUM, Strain/Indicator: TA1537, Metabolic Activation: HAMSTER, LIVER, S-9, AROCLOR 1254, Method: STANDARD PLATE): inactive; negative
mutagenic call (Test System: AMES SALMONELLA TYPHIMURIUM, Strain/Indicator: TA1537, Metabolic Activation: NONE, Method: PREINCUBATION): inactive; negative
mutagenic call [9]: inactive; negative
mutagenic call (Test System: AMES SALMONELLA TYPHIMURIUM, Strain/Indicator: TA1537, Metabolic Activation: RAT, LIVER, S-9, AROCLOR 1254, Method: STANDARD PLATE): inactive; negative
mutagenic call (Test System: AMES SALMONELLA TYPHIMURIUM, Strain/Indicator: TA1537, Metabolic Activation: RAT, LIVER, S-9, KC 500, Method: PREINCUBATION): inactive; negative
mutagenic call (Test System: AMES SALMONELLA TYPHIMURIUM, Strain/Indicator: TA1538, Metabolic Activation: HAMSTER, LIVER, S-9, AROCLOR 1254, Method: STANDARD PLATE): inactive; negative
mutagenic call (Test System: AMES SALMONELLA TYPHIMURIUM, Strain/Indicator: TA1538, Metabolic Activation: NONE, Method: PREINCUBATION): inactive; negative
mutagenic call [10]: inactive; negative
mutagenic call (Test System: AMES SALMONELLA TYPHIMURIUM, Strain/Indicator: TA1538, Metabolic Activation: RAT, LIVER, S-9, AROCLOR 1254, Method: STANDARD PLATE): inactive; negative
mutagenic call (Test System: AMES SALMONELLA TYPHIMURIUM, Strain/Indicator: TA1538, Metabolic Activation: RAT, LIVER, S-9, KC 500, Method: PREINCUBATION): inactive; negative
mutagenic call (Test System: E. COLI, Strain/Indicator: WP2 UVRA, Metabolic Activation: NONE, Method: PREINCUBATION): inactive; negative
mutagenic call (Test System: E. COLI, Strain/Indicator: WP2 UVRA, Metabolic Activation: RAT, LIVER, S-9, KC 500, Method: PREINCUBATION): inactive; negative
mutagenic call [4]: inactive; negative
mutagenic call [5]: active; positive

O=C(c1ccccc1)N(O)c1ccc2c(c1)Cc1ccccc1-2
mutagenic call [2]: active; positive
